Experiments:
[1] = Release kinetics / degradation of OLA and AA in PBS by UV-Vis; format: physicochemical; settings: buffer, pH 7.4
Procedure: Briefly, 0.9 mg of NP was weighed into a quartz cuvette and then 3 mL of PBS solution (pH=7.4) was carefully added to the cuvette. The absorbance curve from 200 nm to 400 nm was measured continuously every half hour until the plateau was reached. The amount of OLA and ascorbic acid released was determined at wavelengths of 311 nm and 265 nm, respectively. This technique allowed simultaneous quantification of the two molecules by monitoring the absorbance at 311 nm (OLA) and 265 nm (AA) (FIG. 1).
All measurements were performed in triplicate.
The degradation of AA followed an exponential decay according to the equation y(t)=e^−t/τ, where τ corresponds to the half-life of the molecule.

[2] = system: PANC-1-induced tumors; assay: In vivo tumor growth and survival, mice with PANC-1-induced tumors; settings: 25 mg/kg OLA intraperitoneally every 3 days, 10 cycles
Procedure: Male and female NOD scid gamma mice generated by the Centro de Instrumentación Científica of the University of Granada were used for the in vivo study. All mice (body weight: 20-25 g) were housed in cages with free access to water and food prior to the experiments and were maintained under controlled temperature, light and humidity (22.0±2° C., 12 h light-dark cycle and 40-70% relative humidity), in specific pathogen-free conditions with sterile atmosphere controlled by HEPA filters. The study was approved by the Ethical Committee for Animal Experimentation of the University of Granada (reference code: 16/01/2020/005) and was performed in accordance with its guidelines. Tumors were induced by subcutaneous injection of 9×10^5 cells derived from the PANC1 cell line into the right flank of NOD-SCID gamma mice. When the tumor was palpable, animals were randomly divided into four groups (n=8-10 mice per group, selecting the tumor-inducing mice): PANC1 mice treated with OLA solvent-(group I), OLA (group II), NP-ACP-AA (group III) and NP-ACP-OLA-AA (group IV). The OLA solvent was 5% DMSO, 40% PEG300, 5% Tween-80 and 50% saline and the NPs were dispersed in saline. […] Weights and deaths were carefully recorded throughout the period and tumor volume was measured with a digital caliper. Tumor volume (mm^3) was calculated as follows: V (mm^3)=(a×b2×π)/6. […]

[3] = system: PANC-1; assay: Cytotoxicity, Sulforhodamine B proliferation assay; format: cell-based, Human
Procedure: Human pancreatic ductal adenocarcinoma cell lines MIA PaCa-2 and PANC1 and the murine pancreatic cancer cell line Panc02 were used. All cell lines were cultured in Dulbecco's modified Eagle medium (DMEM) supplemented with 10% fetal bovine serum and 1% streptomycin penicillin (Sigma-Aldrich). Cells were maintained in monolayer culture in an atmosphere of 37° C. and 5% CO2 and passaged using 0.25% trypsin and 0.02% EDTA.
Panc02, PANC-1 and MIA PaCa-2 cell lines were treated with NP-ACP-OLA and NP-ACP-OLA-AA to determine their cytotoxic effect. The toxicity of NP-ACP and NP-ACP-AA (controls) was tested in all cell lines. For this, PANC-1 cells were seeded at densities of 8×10^3 cells/well and Panc02 and MIA PaCa-2 cells at densities of 2.5×10^3 cells/well in 48-well plates, incubated overnight and exposed to DMSO (OLA solvent), OLA (in different concentration ranges depending on the cell line used), NPs with and without OLA and ascorbic acid for 72 h. Subsequently, the cells were fixed with 10% trichloroacetic acid for 20 minutes and washed three times with distilled water. […] Finally, the optical density (OD) of the dye was measured with a Titertek Multiskan colorimeter (Flow) at 492 nm. Proliferation percentages (Pf %) were calculated as: Pf %=(OD of sample/OD of negative control)×100. […]

[4] = system: PANC-1 cell migration; assay: Cell migration assay; format: cell-based, Human; settings: PANC-1, Cl25 of OLA, monitored 72 h
Procedure: PANC-1 cell migration is a phenomenon related to PARP1 inhibition. To study the effect of NP-ACP-OLA-AA with respect to free OLA and OLA-NPs, the following treatment was carried out with the PANC-1 cell line. NP-ACP-AA was used as a control.
The PANC- 1 cell line was seeded in a 12-well plate (Thermo Fisher) and grown to 95-100% confluence in medium supplemented with DMEM (Sigma-Aldrich). Then, a […] was manually performed using a pipette tip. The next day, dead cells were removed using phosphate buffered saline (PBS) and the culture medium was replaced with DMEM without FBS to prevent cell proliferation. Then, Cl25 of OLA concentration (free and OLA-NPs) was added to the wells and the cells were incubated for 72 h during which the migratory process was monitored using a DM-IL LED microscope. The percentage of migration was calculated by measuring the tumor cell free area at different times using ImageJ software with the Chemotaxis and Migration Tool add-on.

| Compound | time AA remained before being degraded ([1]; 10.5 ppm) | half-life at 10.5 ppm [1] | decrease in tumor volume compared to untreated control mice [2] | survival of mice [2] | Cl50 in PANC-1 higher than in MIA PaCa-2 ([3]; PANC-1 vs MIA PaCa-2) | Cl50 in PANC-1 higher than in Panc02 ([3]; PANC-1 vs Panc02) | inhibition of cell migration compared to untreated cells [4] |
| --- | --- | --- | --- | --- | --- | --- | --- |
| O=C1O[C@H]([C@@H](O)CO)C(O)=C1O [AA, ascorbic acid] | ≤ 12 h | 2.7 h | – | – | – | – | – |
| O=C(c1cc(Cc2n[nH]c(=O)c3ccccc23)ccc1F)N1CCN(C(=O)C2CC2)CC1 [OLA, Olaparib] | – | – | 28.3% | 44% | 8.5 times | 7.5 times | inhibited migration only at 72 hours |

Source: US20260216085A1, “NANOPARTICLES TO ENHANCE THE EFFECTS OF DRUGS FOR THE TREATMENT OF CANCER” (UNIVERSIDAD DE GRANADA, priority 2022, published 2026)
